Assays:
Format in all cases: in vivo
corn (Zea mays) = test: Test A postemergence; settings: Zea mays, post-emergence, 240 h, postemergence
Method in brief: (§1)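 Seeded soil received test chemicals as a preemergence directed spray, and seedlings at one to two leaves, 2–10 cm tall, received them postemergence, in a non-phytotoxic, surfactant-containing solvent mixture. Pots were held in a greenhouse for approximately 10 d, then rated for injury from 0, no effect, to 100, complete control.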

[1] = tested on: pigweed (Amaranthus retroflexus); test: Test A postemergence; settings: Amaranthus retroflexus, post-emergence, 240 h, postemergence
Method in brief: as §1

[2] = tested on: Galium (catchweed bedstraw, Galium aparine); test: Test A postemergence; settings: Galium, post-emergence, 240 h, postemergence
Method in brief: as §1

[3] = tested on: giant foxtail (Setaria faberii); test: Test A postemergence; settings: Setaria faberi, post-emergence, 240 h, postemergence
Method in brief: as §1

[4] = tested on: wheat (Triticum aestivum); test: Test A postemergence; settings: Triticum aestivum, post-emergence, 240 h, postemergence
Method in brief: as §1

[5] = tested on: barnyardgrass (Echinochloa crus-galli); test: Test A postemergence; settings: Echinochloa crus-galli, post-emergence, 240 h, postemergence
Method in brief: as §1

[6] = tested on: ragweed (common ragweed, Ambrosia elatior); test: Test A postemergence; settings: Ambrosia artemisiifolia, post-emergence, 240 h, postemergence
Method in brief: as §1

Kochia (Kochia scoparia) [7] = test: Test A postemergence; settings: Bassia scoparia, post-emergence, 240 h, postemergence
Method in brief: as §1

[8] = tested on: ryegrass, Italian (Italian ryegrass, Lolium multiflorum); test: Test A postemergence; settings: Lolium multiflorum, post-emergence, 240 h, postemergence
Method in brief: as §1

[9] = tested on: blackgrass (Alopecurus myosuroides); test: Test A postemergence; settings: Alopecurus myosuroides, post-emergence, 240 h, postemergence
Method in brief: as §1

[10] = tested on: pigweed (Amaranthus retroflexus); test: Test A preemergence; settings: Amaranthus retroflexus, pre-emergence, 240 h, preemergence, 0 to 100 scale where 0 is no effect and 100 is complete control, read-out: Pigweed plant response rating
[11] = tested on: giant foxtail (Setaria faberii); test: Test A preemergence; settings: Setaria faberi, pre-emergence, 240 h, preemergence, 0 to 100 scale where 0 is no effect and 100 is complete control, read-out: Foxtail, Giant plant response rating
Method in brief: as §1

[12] = tested on: barnyardgrass (Echinochloa crus-galli); test: Test A preemergence; settings: Echinochloa crus-galli, pre-emergence, 240 h, preemergence, 0 to 100 scale where 0 is no effect and 100 is complete control, read-out: Barnyardgrass plant response rating
Method in brief: as §1

[13] = tested on: ragweed (common ragweed, Ambrosia elatior); test: Test A preemergence; settings: Ambrosia artemisiifolia, pre-emergence, 240 h, preemergence, 0 to 100 scale where 0 is no effect and 100 is complete control, read-out: Ragweed plant response rating
Method in brief: as §1

Kochia (Kochia scoparia) [14] = test: Test A preemergence; settings: Bassia scoparia, pre-emergence, 240 h, preemergence, 0 to 100 scale where 0 is no effect and 100 is complete control, read-out: Kochia plant response rating
Method in brief: as §1

[15] = tested on: ryegrass, Italian (Italian ryegrass, Lolium multiflorum); test: Test A preemergence; settings: Lolium multiflorum, pre-emergence, 240 h, preemergence, 0 to 100 scale where 0 is no effect and 100 is complete control, read-out: Ryegrass, Italian plant response rating
Method in brief: as §1

[16] = 125 g ai/ha, visual injury rating, approximately 10 d

CN1CC[C@H](c2ccc(C(F)(F)F)cc2)[C@@H](C(=O)Nc2ccccc2C(F)(F)F)C1=O [Compound 1224]
plant injury at 125 g/ha (corn (Zea mays); 125 g ai/ha, visual injury vs untreated controls after approx. 10 d, 0 = no effect, 100 = complete control, read-out: Corn plant response rating (0 to 100 scale)): 0% | plant injury at 500 g/ha (corn (Zea mays); 500 g ai/ha, 0 to 100 scale, 0 is no effect, 100 is complete control, read-out: Corn plant response rating): 0% | pest or weed control at 125 g/ha ([1]; 125 g ai/ha, visual injury vs untreated controls after approx. 10 d, 0 = no effect, 100 = complete control, read-out: Pigweed plant response rating (0 to 100 scale)): 0% | pest or weed control at 500 g/ha ([1]; 500 g ai/ha, 0 to 100 scale, 0 is no effect, 100 is complete control, read-out: Pigweed plant response rating): 20% | pest or weed control at 125 g/ha ([2]; 125 g ai/ha, visual injury vs untreated controls after approx. 10 d, 0 = no effect, 100 = complete control, read-out: Galium plant response rating (0 to 100 scale)): 0% | pest or weed control at 500 g/ha ([2]; 500 g ai/ha, 0 to 100 scale, 0 is no effect, 100 is complete control, read-out: Galium plant response rating): 40% | pest or weed control at 125 g/ha ([3]; 125 g ai/ha, visual injury vs untreated controls after approx. 10 d, 0 = no effect, 100 = complete control, read-out: Foxtail, Giant plant response rating (0 to 100 scale)): 30% | pest or weed control at 500 g/ha ([3]; 500 g ai/ha, 0 to 100 scale, 0 is no effect, 100 is complete control, read-out: Foxtail, Giant plant response rating): 70% | plant injury at 125 g/ha ([4]; 125 g ai/ha, visual injury vs untreated controls after approx. 10 d, 0 = no effect, 100 = complete control, read-out: Wheat plant response rating (0 to 100 scale)): 0% | plant injury at 500 g/ha ([4]; 500 g ai/ha, 0 to 100 scale, 0 is no effect, 100 is complete control, read-out: Wheat plant response rating): 0% | pest or weed control at 125 g/ha ([5]; 125 g ai/ha, visual injury vs untreated controls after approx. 10 d, 0 = no effect, 100 = complete control, read-out: Barnyardgrass plant response rating (0 to 100 scale)): 70% | pest or weed control at 500 g/ha ([5]; 500 g ai/ha, 0 to 100 scale, 0 is no effect, 100 is complete control, read-out: Barnyardgrass plant response rating): 90% | pest or weed control at 125 g/ha ([6]; 125 g ai/ha, visual injury vs untreated controls after approx. 10 d, 0 = no effect, 100 = complete control, read-out: Ragweed plant response rating (0 to 100 scale)): 0% | pest or weed control at 500 g/ha ([6]; 500 g ai/ha, 0 to 100 scale, 0 is no effect, 100 is complete control, read-out: Ragweed plant response rating): 0% | pest or weed control at 125 g/ha (Kochia (Kochia scoparia) [7]; 125 g ai/ha, visual injury vs untreated controls after approx. 10 d, 0 = no effect, 100 = complete control, read-out: Kochia plant response rating (0 to 100 scale)): 0% | pest or weed control at 500 g/ha (Kochia (Kochia scoparia) [7]; 500 g ai/ha, 0 to 100 scale, 0 is no effect, 100 is complete control, read-out: Kochia plant response rating): 0% | pest or weed control at 125 g/ha ([8]; 125 g ai/ha, visual injury vs untreated controls after approx. 10 d, 0 = no effect, 100 = complete control, read-out: Ryegrass, Italian plant response rating (0 to 100 scale)): 0% | pest or weed control at 500 g/ha ([8]; 500 g ai/ha, 0 to 100 scale, 0 is no effect, 100 is complete control, read-out: Ryegrass, Italian plant response rating): 0% | pest or weed control at 125 g/ha ([9]; 125 g ai/ha, visual injury vs untreated controls after approx. 10 d, 0 = no effect, 100 = complete control, read-out: Blackgrass plant response rating (0 to 100 scale)): 0% | pest or weed control at 500 g/ha ([9]; 500 g ai/ha, 0 to 100 scale, 0 is no effect, 100 is complete control, read-out: Blackgrass plant response rating): 0% | pest or weed control at 125 g/ha [10, 16]: 50% | pest or weed control at 500 g/ha ([10]; 500 g ai/ha): 70% | pest or weed control at 125 g/ha [11, 16]: 80% | pest or weed control at 500 g/ha ([11]; 500 g ai/ha): 90% | pest or weed control at 125 g/ha [12, 16]: 40% | pest or weed control at 500 g/ha ([12]; 500 g ai/ha): 80% | pest or weed control at 125 g/ha [13, 16]: 0% | pest or weed control at 500 g/ha ([13]; 500 g ai/ha): 20% | pest or weed control at 125 g/ha (Kochia (Kochia scoparia) [14]; [16]): 0% | pest or weed control at 500 g/ha (Kochia (Kochia scoparia) [14]; 500 g ai/ha): 0% | pest or weed control at 125 g/ha [15, 16]: 0% | pest or weed control at 500 g/ha ([15]; 500 g ai/ha): 20%

Reference: patent US12077503B2, “Substituted cyclic amides and their use as herbicides” (FMC CORPORATION, priority 2015, dated 2024)
